Measured values taken from patent US8846909B2, “Bicyclic heteroaryl kinase inhibitors and methods of use” (University of Rochester, priority 2010, dated 2014).
Where two headings read alike, the source gives them in different places.

Target: T1, MLK3 (Homo sapiens, UniProt Q16584)
T1 construct: purchased Dundee DU8313
Test: Radiometric filter plate MLK3 assay; on MK3 IC50: 2 µM cold ATP (Km)
Format: biochemical
Procedure: After a twenty minute incubation, the reactions were washed through filter plates and read on a scintillation counter. Results are shown in Table 10 below, in which +++ indicates ≦0.1 μM, ++ indicates >0.1 μM and ≦1 μM, and + indicates >1 μM.

T1 sequence (Q16584 whole entry): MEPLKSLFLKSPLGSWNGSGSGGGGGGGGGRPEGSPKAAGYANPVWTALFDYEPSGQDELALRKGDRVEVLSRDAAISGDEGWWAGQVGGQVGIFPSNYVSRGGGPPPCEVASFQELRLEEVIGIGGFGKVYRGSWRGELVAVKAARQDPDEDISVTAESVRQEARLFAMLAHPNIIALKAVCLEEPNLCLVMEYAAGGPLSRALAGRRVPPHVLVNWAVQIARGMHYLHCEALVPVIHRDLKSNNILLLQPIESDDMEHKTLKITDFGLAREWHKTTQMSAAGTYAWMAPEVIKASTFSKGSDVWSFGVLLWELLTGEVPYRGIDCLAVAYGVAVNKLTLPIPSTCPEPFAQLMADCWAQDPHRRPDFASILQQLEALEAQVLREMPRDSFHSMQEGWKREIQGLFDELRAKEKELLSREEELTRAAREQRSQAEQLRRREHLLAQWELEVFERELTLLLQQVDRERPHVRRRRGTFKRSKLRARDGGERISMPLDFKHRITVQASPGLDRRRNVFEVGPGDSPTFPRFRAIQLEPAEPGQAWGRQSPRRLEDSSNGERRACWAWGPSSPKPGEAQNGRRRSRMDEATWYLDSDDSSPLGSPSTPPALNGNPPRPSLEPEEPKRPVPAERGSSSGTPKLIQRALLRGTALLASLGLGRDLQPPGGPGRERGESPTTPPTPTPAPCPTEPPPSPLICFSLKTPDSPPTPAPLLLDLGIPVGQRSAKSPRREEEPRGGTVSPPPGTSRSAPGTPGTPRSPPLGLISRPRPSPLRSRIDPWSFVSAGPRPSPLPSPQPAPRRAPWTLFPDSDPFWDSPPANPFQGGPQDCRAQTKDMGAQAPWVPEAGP

Structure (SMILES) | IC50 (read-out: MK3 IC50) [µM] | IC50 [µM]
COc1cc(-c2cnc3[nH]c(=O)n(-c4ccc5[nH]ccc5c4)c3n2)cc(OC)c1O [Example 62, 6-(4-hydroxy-3,5-dimethoxyphenyl)-1-(1H-indol-5-yl)-1H-imidazo[4,5-b]pyrazin-2(3H)-one] | < 0.1 | 
COc1cc(-c2cnc3[nH]c(=O)n(-c4ccc5[nH]ccc5c4)c3c2)cc(OC)c1OC [Example 124, 1-(1H-indol-5-yl)-6-(3,4,5-trimethoxyphenyl)-1H-imidazo[4,5-b]pyridin-2(3H)-one] | 0.1 to 1 | 
COc1cc(-c2cnc3[nH]cc(-c4ccc5[nH]ccc5c4)c3n2)ccc1OCCN1CCOCC1 [Example 39, 4-(2-(4-(7-(1H-indol-5-yl)-5H-pyrrolo[3,2-b]pyrazin-2-yl)-2-methoxyphenoxy)ethyl)morpholine] | < 0.1 | 
COc1cc(-c2cnc3[nH]cc(-c4ccc(NC(C)=O)cc4)c3c2)cc(OC)c1OC [Example 16, N-(4-(5-(3,4,5-trimethoxyphenyl)-1H-pyrrolo[2,3-b]pyridin-3-yl)phenyl)acetamide] | < 0.1 | 
Cc1cc(C)cc(-c2cnc3[nH]c(=O)n(-c4ccc5scnc5c4)c3n2)c1 [Example 99, 1-(benzo[d]thiazol-5-yl)-6-(3,5-dimethylphenyl)-1H-imidazo[4,5-b]pyrazin-2(3H)-one] | > 1 | 
Cn1ccc2cc(-n3c(=O)[nH]c4ncc(-c5ccc(O)cc5)nc43)ccc21 [Example 42, 6-(4-hydroxyphenyl)-1-(1-methyl-1H-indol-5-yl)-1H-imidazo[4,5-b]pyrazin-2(3H)-one] | > 1 | 
CN1CCN(c2cc(-c3cnc4[nH]c(=O)n(-c5ccc6[nH]ccc6c5)c4n3)ccn2)CC1 [Example 66, 1-(1H-indol-5-yl)-6-(2-(4-methylpiperazin-1-yl)pyridin-4-yl)-1H-imidazo[4,5-b]pyrazin-2(3H)-one] | > 1 | 
Cc1cc2cc(-n3c(=O)[nH]c4ncc(-c5cc(Cl)cc(Cl)c5)nc43)ccc2[nH]1 [Example 73, 6-(3,5-dichlorophenyl)-1-(2-methyl-1H-indol-5-yl)-1H-imidazo[4,5-b]pyrazin-2(3H)-one] | > 1 | 
CC(C)OC(=O)N1CCN(Cc2ccc(-c3cnc4[nH]cc(-c5ccc6[nH]ccc6c5)c4c3)cc2)CC1 [Example 185] |  | 0.1 to 1

Further lines, with some results ahead:

IC50 (read-out: MK3 IC50) [µM] | Structure (SMILES) | IC50 [µM]
< 0.1 | CC(C)(C)OC(=O)N1CCN(C(=O)c2ccc(-c3cnc4[nH]cc(-c5ccc(C(N)=O)cc5)c4c3)cc2)CC1 [Example 148, 4-{4-[3-(4-carbamoyl-phenyl)-1H-pyrrolo[2,3-b]pyridin-5-yl]-benzoyl}-piperazine-1-carboxylic acid tert-butyl ester] | 
< 0.1 | [2H]c1cc2cc(-c3c[nH]c4ncc(-c5ccc(CN6CCN(C)CC6)cc5)cc34)ccc2[nH]1 [Example 206] | 
< 0.1 | CN1CCN(Cc2ccc(-c3cnc4[nH]cc(-c5ccc6ncccc6c5)c4c3)cc2)CC1 [Example 203] | 
0.1 to 1 | c1ccc(CN2CCN(Cc3ccc(-c4cnc5[nH]cc(-c6ccc7[nH]ccc7c6)c5c4)cc3)CC2)cc1 [Example 178] | 
< 0.1 | O=C1CCC(C(=O)N2CCN(Cc3ccc(-c4cnc5[nH]cc(-c6ccc7[nH]ccc7c6)c5c4)cc3)CC2)N1 (centres unmarked) [Example 195] | 
< 0.1 | O=C1CN(Cc2ccc(-c3cnc4[nH]cc(-c5ccc6[nH]ccc6c5)c4c3)cc2)CCN1 [Example 142, 4-{4-[3-(1H-indol-5-yl)-1H-pyrrolo[2,3-b]pyridin-5-yl]-benzyl}-piperazin-2-one] | 
< 0.1 | CC(=O)N1CCN(Cc2ccc(-c3cnc4[nH]cc(-c5ccc6[nH]ccc6c5)c4c3)cc2)CC1C (centres unmarked) [Example 197, 1-(4-(4-(3-(1H-indol-5-yl)-1H-pyrrolo[2,3-b]pyridin-5-yl)benzyl)-2-methylpiperazin-1-yl)ethanone] | 
> 1 | COc1cc(-c2cnc3c(c2)C(Cc2ccc(C(N)=O)cc2)C(=O)N3)cc(OC)c1OC (centres unmarked) [Example 138, 4-[2-oxo-5-(3,4,5-trimethoxy-phenyl)-2,3-dihydro-1H-pyrrolo[2,3-b]pyridin-3-ylmethyl]-benzamide] | 
